Laboratory results taken from PubChem BioAssay AID1963844 (Molecular Pharmacology Branch, DTP, NCI, 2024).

System: 422866-222-R5-J1-PDC complex spheroid viability
Test: Anticancer human tumor 422866-222-R5-J1-PDC patient-derived pancreatic adenocarcinoma cell line growth inhibition [POLQ]
Settings: for IC50: curve of first compound; for viability, T/C: stronger effect = lower value
How it was run: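 Complex spheroid viability model combining PDC tumour cells with endothelial (HUVEC) and MSC stromal cells. Novobiocin, ART-558 or RP6685 were tested singly and in combination with standard and investigational anticancer drugs. Each was titrated in half-log steps from near clinical Cmax, or from 10 microM where Cmax was unknown.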

[1] = second compound 0.0316 µM, first compound 0.0316 µM
[2] = second compound 0.0316 µM, first compound 0.1 µM
[3] = second compound 0.0316 µM, first compound 0.316 µM
[4] = second compound 0.0316 µM, first compound 1 µM
[5] = second compound 0.1 µM, first compound 0.0316 µM
[6] = second compound 0.1 µM, first compound 0.1 µM
[7] = second compound 0.1 µM, first compound 0.316 µM
[8] = second compound 0.1 µM, first compound 1 µM
[9] = second compound 0.316 µM, first compound 0.0316 µM
[10] = second compound 0.316 µM, first compound 0.1 µM
[11] = second compound 0.316 µM, first compound 0.316 µM
[12] = second compound 0.316 µM, first compound 1 µM
[13] = second compound 1 µM, first compound 0.0316 µM
[14] = second compound 1 µM, first compound 0.1 µM
[15] = second compound 1 µM, first compound 0.316 µM
[16] = second compound 1 µM, first compound 1 µM
[17] = second compound 3.16 µM, first compound 0.0316 µM
[18] = second compound 3.16 µM, first compound 0.1 µM
[19] = second compound 3.16 µM, first compound 0.316 µM
[20] = second compound 3.16 µM, first compound 1 µM
[21] = second compound 10 µM, first compound 0.0316 µM
[22] = second compound 10 µM, first compound 0.1 µM
[23] = second compound 10 µM, first compound 0.316 µM
[24] = second compound 10 µM, first compound 1 µM
[25] = second compound 0.0316 µM, first compound 3.16 µM
[26] = second compound 0.0316 µM, first compound 10 µM
[27] = second compound 0.1 µM, first compound 3.16 µM
[28] = second compound 0.1 µM, first compound 10 µM
[29] = second compound 0.316 µM, first compound 3.16 µM
[30] = second compound 0.316 µM, first compound 10 µM
[31] = second compound 1 µM, first compound 3.16 µM
[32] = second compound 1 µM, first compound 10 µM
[33] = second compound 3.16 µM, first compound 3.16 µM
[34] = second compound 3.16 µM, first compound 10 µM
[35] = second compound 10 µM, first compound 3.16 µM
[36] = second compound 10 µM, first compound 10 µM
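Further: spheroids exposed to compounds for one week before readout.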
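Wherever viability, T/C is given: percent of DMSO vehicle wells luminescence so 100% = untreated viability.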

C=CCn1c(=O)c2cnc(Nc3ccc(N4CCN(C)CC4)cc3)nc2n1-c1cccc(C(C)(C)O)n1 + Nc1ccc(C#CCN(C(=O)Cc2ncc(C(F)(F)F)cc2C(F)(F)F)c2ccc(F)cc2)nn1
IC50 (second compound 0.0316 µM): 290 nM
IC50 (second compound 0.1 µM): 270 nM
IC50 (second compound 0.316 µM): 252 nM
IC50 (second compound 1 µM): 311 nM
IC50 (second compound 3.16 µM): 251 nM
IC50 (second compound 10 µM): 257 nM
viability, T/C (second compound 0.0316 µM, first compound 0.00316 µM): 88%
viability, T/C (second compound 0.0316 µM, first compound 0.01 µM): 96.6%
viability, T/C [1]: 92.1%
viability, T/C [2]: 79.7%
viability, T/C [3]: 47.8%
viability, T/C [4]: 33.7%
viability, T/C (second compound 0.1 µM, first compound 0.00316 µM): 98%
viability, T/C (second compound 0.1 µM, first compound 0.01 µM): 102%
viability, T/C [5]: 98.2%
viability, T/C [6]: 80.8%
viability, T/C [7]: 45.2%
viability, T/C [8]: 32.8%
viability, T/C (second compound 0.316 µM, first compound 0.00316 µM): 97%
viability, T/C (second compound 0.316 µM, first compound 0.01 µM): 89.7%
viability, T/C [9]: 99.7%
viability, T/C [10]: 71.9%
viability, T/C [11]: 46.5%
viability, T/C [12]: 34.6%
viability, T/C (second compound 1 µM, first compound 0.00316 µM): 97.6%
viability, T/C (second compound 1 µM, first compound 0.01 µM): 91.4%
viability, T/C [13]: 115%
viability, T/C [14]: 76.2%
viability, T/C [15]: 53.5%
viability, T/C [16]: 34.3%
viability, T/C (second compound 3.16 µM, first compound 0.00316 µM): 78.1%
viability, T/C (second compound 3.16 µM, first compound 0.01 µM): 97.1%
viability, T/C [17]: 128%
viability, T/C [18]: 69.5%
viability, T/C [19]: 53.6%
viability, T/C [20]: 36.6%
viability, T/C (second compound 10 µM, first compound 0.00316 µM): 106%
viability, T/C (second compound 10 µM, first compound 0.01 µM): 104%
viability, T/C [21]: 103%
viability, T/C [22]: 78.7%
viability, T/C [23]: 44%
viability, T/C [24]: 35.7%

CC1COCCN1c1cc(-c2ccnn2C)c2ccnc(-c3ccn[nH]3)c2n1 (stereo unspecified) + Nc1ccc(C#CCN(C(=O)Cc2ncc(C(F)(F)F)cc2C(F)(F)F)c2ccc(F)cc2)nn1
IC50 (second compound 0.0316 µM): > 10000 nM
IC50 (second compound 0.1 µM): > 10000 nM
IC50 (second compound 0.316 µM): > 10000 nM
IC50 (second compound 1 µM): 10000 nM
IC50 (second compound 3.16 µM): 232 nM
IC50 (second compound 10 µM): > 10000 nM
viability, T/C [1]: 110%
viability, T/C [2]: 52.5%
viability, T/C [3]: 35.8%
viability, T/C [4]: 31.4%
viability, T/C [25]: 72.4%
viability, T/C [26]: 67.8%
viability, T/C [5]: 112%
viability, T/C [6]: 49.3%
viability, T/C [7]: 44.4%
viability, T/C [8]: 37.4%
viability, T/C [27]: 45%
viability, T/C [28]: 81.1%
viability, T/C [9]: 90.7%
viability, T/C [10]: 45.4%
viability, T/C [11]: 33.7%
viability, T/C [12]: 34%
viability, T/C [29]: 68.2%
viability, T/C [30]: 83.4%
viability, T/C [13]: 87%
viability, T/C [14]: 62.4%
viability, T/C [15]: 38.5%
viability, T/C [16]: 29.9%
viability, T/C [31]: 61.5%
viability, T/C [32]: 73%
viability, T/C [17]: 96.6%
viability, T/C [18]: 51.6%
viability, T/C [19]: 32.6%
viability, T/C [20]: 29.8%
viability, T/C [33]: 61.5%
viability, T/C [34]: 74.2%
viability, T/C [21]: 102%
viability, T/C [22]: 41.1%
viability, T/C [23]: 39.6%
viability, T/C [24]: 36.2%
viability, T/C [35]: 79.8%
viability, T/C [36]: 74.8%

CC1COCCN1c1cc(C2(S(C)(=N)=O)CC2)nc(-c2ccnc3[nH]ccc23)n1 (stereo unspecified) + Nc1ccc(C#CCN(C(=O)Cc2ncc(C(F)(F)F)cc2C(F)(F)F)c2ccc(F)cc2)nn1
IC50 (second compound 0.0316 µM): 2460 nM
IC50 (second compound 0.1 µM): 1830 nM
IC50 (second compound 0.316 µM): 1750 nM
IC50 (second compound 1 µM): 2120 nM
IC50 (second compound 3.16 µM): 1740 nM
IC50 (second compound 10 µM): 1900 nM
viability, T/C [1]: 105%
viability, T/C [2]: 81.7%
viability, T/C [3]: 80.9%
viability, T/C [4]: 64.5%
viability, T/C [25]: 38%
viability, T/C [26]: 42.6%
viability, T/C [5]: 92%
viability, T/C [6]: 96.5%
viability, T/C [7]: 95.3%
viability, T/C [8]: 58.9%
viability, T/C [27]: 41.4%
viability, T/C [28]: 42.2%
viability, T/C [9]: 89.8%
viability, T/C [10]: 96%
viability, T/C [11]: 89.7%
viability, T/C [12]: 65.6%
viability, T/C [29]: 32.5%
viability, T/C [30]: 34%
viability, T/C [13]: 107%
viability, T/C [14]: 112%
viability, T/C [15]: 92.4%
viability, T/C [16]: 70.5%
viability, T/C [31]: 38.7%
viability, T/C [32]: 28.2%
viability, T/C [17]: 87.3%
viability, T/C [18]: 108%
viability, T/C [19]: 98.8%
viability, T/C [20]: 57.2%
viability, T/C [33]: 40.8%
viability, T/C [34]: 43.5%
viability, T/C [21]: 109%
viability, T/C [22]: 117%
viability, T/C [23]: 102%
viability, T/C [24]: 65.9%
viability, T/C [35]: 37.8%
viability, T/C [36]: 31.8%
